Assay results as given in US6784177B2, “Methods using hydralazine compounds and isosorbide dinitrate or isosorbide mononitrate” (Nitro Med, Inc., priority 1999, dated 2004).
Read-outs that look alike come from different tables or passages of the source.

Legend:
[1] = tested on: black and white subgroups; assay: black:white relative risk in placebo and enalapril groups (trial not named); type: in vivo, human; conditions: enalapril group; placebo group 1.15
[2] = tested on: male patients with heart failure; assay: V-HeFT II hospitalization; type: in vivo, human
Description: (§1) Drug administration was double-blind.

[3] = tested on: male patients with heart failure; assay: V-HeFT II quality of life, Heart Condition Assessment (HCA) questionnaire; type: in vivo, human; conditions: black patients, at 12 months, negative = improved, positive = worsened, p=0.043
Experimental: “Quality of life” refers to one or more of a persons ability to walk, climb stairs, do errands, work around the house, participate in recreational activities, and/or not requiring rest during the day, and/or the absence of sleeping problems or shortness of breath. The quality of life was measured using the Heart Condition Assessment (HCA) questionnaire. The questionnaire was self-administered after brief standardization instructions. The score was obtained by summing the ranks of the responses to each question.
as §1

[4] = tested on: male patients with heart failure; assay: V-HeFT II change in radiographic cardiothoracic ratio; type: in vivo, human; conditions: white patients
Description: as §1

[5] = tested on: male patients with heart failure; assay: V-HeFT II change in systolic blood pressure; type: in vivo, human
Description: as §1

[6] = tested on: male patients with heart failure; assay: V-HeFT II change in plasma norepinephrine (radioenzymatic assay); type: in vivo, human; conditions: either racial group
Description: as §1

[7] = tested on: male patients with heart failure; assay: V-HeFT II change in radionuclide left ventricular ejection fraction; type: in vivo, human; conditions: both racial groups
Description: as §1

[8] = tested on: male patients with heart failure; assay: V-HeFT II mortality (Kaplan-Meier, log-rank); type: in vivo, human
Description: as §1

[9] = tested on: male patients with heart failure; assay: V-HeFT II peak exercise oxygen consumption (MVO2), bicycle-ergometer exercise test; type: in vivo, human
Experimental: “Oxygen consumption” was measured during a progressive maximal bicycle-ergometer exercise test taken while the expired air was collected continuously to monitor oxygen consumption. […] Patients with pulmonary diseases, obstructive valvular diseases and the like, tend to have a low oxygen consumption. An increase in a patient's oxygen consumption typically results in the patient's increased exercise tolerance and implies that the patient would have an improved quality of life.
as §1

[10] = tested on: male patients with heart failure; assay: V-HeFT I hospitalization; type: in vivo, human
Description: as §1

[11] = tested on: male patients with heart failure; conditions: V-HeFT I
Experimental: Baseline measurements were restricted to the test done at the time of randomization. Change in measurements from baseline were compared between black and white patients using t-tests performed for each scheduled follow-up. […] Survival curves were compared by the log-rank test. Survival in black and white patients was further analyzed by presence or absence of a history of hypertension.
In the present invention, an interaction analysis between race and treatment was performed for both V-HeFT I and II, adjusting for baseline imbalances.
Male patients were screened for participation in the study on the basis of a history of heart failure or documentation of left ventricular enlargement or dysfunction by chest radiography, echocardiography or radionuclide ventriculography. The specific ventricular imaging requirement for entry was one of the following: a radiographic cardiothoracic ratio >0.55, an echocardiographic left ventricular end-diastolic diameter >2.7 cm/m^2 body surface area or radionuclide left ventricular ejection fraction <0.45. In addition, patients were eligible for entry only if they had reduced maximal exercise tolerance. This was defined as a measured peak oxygen consumption (VO2)<25 ml/kg per min during a progressive bicycle ergometer exercise test.
Nearly all patients were receiving background therapy with diuretic and/or digoxin. […] Full doses of the vasodilator regimens in V-HeFT I were prazosin 5 mg four times daily, the combination of hydralazine 75 mg and isosorbide dinitrate 40 mg four times daily, or placebo. […] Drug administration was double-blind. All patients were studied for the duration of the trial and for a minimum of 6 months or until death.

CCOC(=O)[C@H](CCc1ccccc1)N[C@@H](C)C(=O)N1CCC[C@H]1C(=O)O [enalapril]
black:white relative risk [1]: 1.34
patients hospitalized for CHF (%) ([2]; black patients): 22.6%
patients hospitalized for any reason (%) ([2]; black patients): 61.3%
patients hospitalized for CHF (%) ([2]; white patients): 17.5%
patients hospitalized for any reason (%) ([2]; white patients): 62.0%
quality of life score (HCA questionnaire) [3]: +1.04
reduction in radiographic heart size (cardiothoracic ratio) during follow-up [4]: persisted through 3 years
systolic blood pressure after the initial fall ([5]; black patients): recovered by 13 weeks
systolic blood pressure after the initial fall ([5]; white patients, 4.5 years of follow-up): remained lower thereafter
change in plasma norepinephrine (PNE) [6]: not apparent
radionuclide ejection fraction (EF) response [7]: rose
deaths among treated patients ([8]; black patients, of 106 on enalapril, of 109 on hydralazine-isosorbide dinitrate): 39
annual mortality rate (AMR) ([8]; black patients, p=NS): 12.8%
mortality reduction with enalapril compared to hydralazine and isosorbide dinitrate ([8]; white patients with a history of hypertension, p<0.02): significant mortality reduction
annual mortality rate (AMR) ([8]; white patients, log rank p=0.02): 11.0%
deaths among treated patients ([8]; white patients, of 292 on enalapril, of 282 on hydralazine-isosorbide dinitrate): 90
mortality reduction with enalapril compared to hydralazine and isosorbide dinitrate ([8]; whites or blacks without hypertensive history, blacks with hypertensive history): did not differ
mean improvement (increase) from baseline in MVO2, adjusted for differences in baseline characteristics ([9]; black patients, 12 months, p=0.15): 0.6 mL/h/kg
decrease from baseline in MVO2 ([9]; black patients, 12 months, unadjusted, p=0.19): 2.82 mL/h/kg
effect on oxygen consumption (MVO2) ([9]; both black and white patients, 13 weeks): did not improve

COc1cc2nc(N3CCN(C(=O)c4ccco4)CC3)nc(N)c2cc1OC [prazosin]
patients hospitalized for CHF (%) ([10]; black patients): 23. %
patients hospitalized for any reason (%) ([10]; black patients): 40.4%
patients hospitalized for CHF (%) ([10]; white patients): 31.5%
patients hospitalized for any reason (%) ([10]; white patients): 35.4%
annual mortality rate (AMR) ([11]; black patients, placebo AMR 17.3%): 15.4%
treatment benefit on survival ([11]; white patients, vs placebo (FIG. 2B)): absence of demonstrable treatment benefit
annual mortality rate (AMR) ([11]; white patients, placebo AMR 18.8%, p=NS): 22.1%
